Laboratory results: patent US7776833B2, “Use of cyclic bioisosters of purine system derivatives for treating diseases produced by disorders of niterergic and dopaminergic systems” (priority 2003, dated 2010)

What was measured:
Assay type in all cases: in vivo, Wistar rats
[1] = system: physical dependence from morphine (morphine abstinence); assay: Morphine abstinence syndrome, signs scored in the open field test; conditions: Morphine − (morphine + compound); compound 3 x 20 mg/kg intramuscularly; one value for the three compounds
Protocol: Thirty six hours after the last injection selected motor and autonomice parameters which are specific symptoms of abstinence were monitored in the <<open field>> test (an arena with a diameter of 120 cm and wall height of 40 cm).
Med., 2002, V.29, p.1-6.). The observable signs were recorded quantitatively (if it was possible) with further assignment of an index to each sign (depending on the specific feature of the sign) and calculation of the sum of scores. The expression of the abstinence syndrome was presented as a sum of scores. The results were processed using nonparametric statistical analysis based on the Mann-Whitney test.

[2] = system: nitric oxide synthase (NOS); assay: Nitric oxide synthase activity in brain regions, radiometric [3H]L-citrulline method; conditions: 3 x 20 mg/kg intramuscularly
Protocol: (§1) After the above experiments the rat brains were isolated and immediately placed in the ice cold 0.9% solution of sodium chloride. After cooling the following structures were isolated from the brain: cerebral cortex, hippocampus, mesencephalon, striatum, brainstem, hypothalamus and cerebellum. The isolated tissue was homogenized in a Potter S homogenizer for 3 minutes at 1500 rpm in 4-5 volumes of 20 mM HEPES (pH 7.5) at 4° C. The supernatants were centrifuged for 30 minutes at 11000 g at 4° C., and aliquots of the obtained supernatants were taken for determining nitrates and nitrites (NOx-), while the remaining part was mixed with cooled 20 mM of HEPES (pH 7.5), containing 0.5 mM ethylenediamine tetraacetate (EDTA), 1 mM dithiotreitol (DDT), 1 mM phenylmethylsulfonyl fluoride (PMSF), aprotinine and leupeptine at a concentration of 5 μg/ml, this mixture being used for determining nitric oxide synthase (NOS) activity.
The activity of nitric oxide synthase (NOS) was determined using a radiometric method by the rate of L-citrulline accumulation in a reaction of [^3H] L-arginine oxidation catalyzed by NOS (Bredt M., Snyder S. Nitric oxide mediates glutamate-linked enhancement of cGMP levels in the cerebellum. Proc. Natl. Acad. Sci., USA, 1989, V.86, p.9030-9033). The formation of L-citrulline in this reaction is equivalent to a biosynthesis of nitric oxide.
The reaction was initiated by adding brain supernatant in the reaction medium containing 2 μCi/ml of [3H] L-arginine, 20 mM HEPES (pH 7.4), 0.2 mM CaCl2, 5 μM FAD, 5 μM FMN, 1 mM NADPH, 50 μM of BH4. After 15-60 minutes of incubation at 37° C. a suspension of Dowex 50WX8-400 (Na^+-form), which sorbs unreacted [^3H]L-arginine, but not [^3H] L-citrulline was added to the samples. After the sorption the radioactivity of the samples was determined on a scintillation counter SL-4000 (“Intertechnique”). The activity of Ca^2+-dependent and Ca^2+-independent NOS isoforms was determined by the difference of rates of [^3H]L-citrulline formation in three parallel samples containing 2 mM EDTA (Ca^2+ chelator), 2 mM EDTA+2 mM L-NAME (inhibitor all NOS isoforms) or without inhibitors. The enzyme activity was expressed in rnol [^3H]L-citrulline acumulated per 1 minute on 1 mg of supernatant protein.
(§2) The content of protein in the samples was determined by the Bradford method (Bradford M. M. A rapid and sensitive method for quantitation of microgram quantities of protein using the principle of protein binding . Anal. Biochem., 1976, V. 72, p. 248-254) using Coumassi dye. The statistical analysis was performed using methods appropriate for respective experiments. The data are expressed as mean±standard error of mean.

[3] = system: nitrites and nitrates (NOx-); assay: Measurement of nitrates/nitrites (NOx-) in brain regions after the morphine abstinence experiment; conditions: 3 x 20 mg/kg intramuscularly
Protocol: as §1
To estimate the intensity of metabolism of nitric oxide in rats, quantitative determination of stable metabolites of nitrogen oxide-nitrites and nitrates (NOx-) was performed using a fluorometric method by fluorescence of naphthotriazole, a product of reaction of 2,3- diaminonaphthalene (DAN) and nitrite in an acidic medium (Misko T. R., Schilling R. J., Salvemini D. et al. A fluorometric assay for the measurement of nitrite in biological samples. Anal. Biochem., 1993, V. 214, p.11-16) with modifications (Lei B., Adachi N., Nagaro T., Arai T. Measurement of total nitric oxide metabolite (NO (x) (-)) levels in vivo. Brain. Res. Protoc., 1999, V. 4, p. 415-419).
The supernatants of brain deproteinized at 100° C. were placed in a nitrite recovery system containing 0.125 unit/ml of nitrate reductase, 25 μM NADPH and 25 μM FAD prepared in 20 mM Tris-HCl buffer pH 7.6 and incubated for 30 minutes at 37° C. For oxidation of NADPH a lactate dehydrogenase (LDH)/pyruvate system was used. Then 316.0 μM DAN solution in 0.62 M HCl was added and the mixture was incubated for 10 minutes in dark. For stabilization of fluorescence of the formed naphthotriazole, 280 mM NaOH was added. The fluorescence intensity was measured using spectrofluorometer Hitachi F-3000 at a wavelength of excitation 365 nm and emission 405 nm. To calculate the concentration of NOx- in the brain a standard solution of sodium nitrate was used. The concentration of NOx- was expressed in nmol/mg of protein.
as §2

[4] = Groups Nos. 3-14, compound without morphine, one value for all 12 compounds
[5] = Morphine + compound, one value for the three compounds

SMILES	Authentic differences (ξ-square criterion) in appearance of signs of abstinence: <<Wet dog>> shakes [1]	Authentic differences (ξ-square criterion) in appearance of signs of abstinence: Aggression [1]	Authentic differences (ξ-square criterion) in appearance of signs of abstinence: Convulsions [1]	Authentic differences (ξ-square criterion) in appearance of signs of abstinence: Diarrhea [1]	Authentic differences (ξ-square criterion) in appearance of signs of abstinence: Dyspnea [1]	Authentic differences (ξ-square criterion) in appearance of signs of abstinence: Forelimb jogging [1]	Authentic differences (ξ-square criterion) in appearance of signs of abstinence: Grit with teeth [1]	Authentic differences (ξ-square criterion) in appearance of signs of abstinence: Mastication [1]	Authentic differences (ξ-square criterion) in appearance of signs of abstinence: Piloerection [1]	Authentic differences (ξ-square criterion) in appearance of signs of abstinence: Ptosis [1]	Authentic differences (ξ-square criterion) in appearance of signs of abstinence: Rhinorrhea [1]	Authentic differences (ξ-square criterion) in appearance of signs of abstinence: Squeak when touched [1]	Activity of NOS, hippocampus [2, 4]	Activity of NOS, hypothalamus [2, 4]	Activity of NOS, midbrain [2, 4]	Activity of NOS, striatum [2, 4]	Activity of NOS, hippocampus [2, 5]	Activity of NOS, hypothalamus [2, 5]	Activity of NOS, midbrain [2, 5]	Activity of NOS, striatum [2, 5]	other results
Nc1ccc2c(=O)n([C@@H]3O[C@H](CO)[C@@H](O)[C@H]3O)[nH]c(=O)c2c1.[Na] [Compound 11, sodium salt of 6-amino-2-(β-D-ribofuranosile)benzo[d]-3H-pyridazine-1,4-dione]	0.7562	0.8456	0.7546	0.0032	0.0834	0.8217	0.8652	0.1032	0.2567	0.0320	0.4032	0.1342	3.09 ± 0.16 nmol/min/mg of protein	5.45 ± 0.24 nmol/min/mg of protein	2.60 ± 0.29 nmol/min/mg of protein	1.26 ± 0.08 nmol/min/mg of protein	2.51 ± 0.19 nmol/min/mg of protein	5.36 ± 0.33 nmol/min/mg of protein	1.99 ± 0.29 nmol/min/mg of protein	1.29 ± 0.09 nmol/min/mg of protein	Nitrites, brainstem [3, 4]: 6.31 ± 0.58 nmol/mg of protein; Nitrites, cerebellum [3, 4]: 6.66 ± 0.63 nmol/mg of protein; Nitrites, cerebral cortex [3, 4]: 4.31 ± 0.37 nmol/mg of protein; Nitrites, hippocampus [3, 4]: 6.47 ± 0.72 nmol/mg of protein; Nitrites, hypothalamus [3, 4]: 6.77 ± 0.83 nmol/mg of protein; Nitrites, midbrain [3, 4]: 6.65 ± 0.70 nmol/mg of protein; Nitrites, striatum [3, 4]: 6.11 ± 0.29 nmol/mg of protein; Nitrites, brainstem [3, 5]: 6.99 ± 0.82 nmol/mg of protein; Nitrites, cerebellum [3, 5]: 5.85 ± 0.47 nmol/mg of protein; Nitrites, cerebral cortex [3, 5]: 4.93 ± 0.39 nmol/mg of protein; Nitrites, hippocampus [3, 5]: 5.24 ± 0.49 nmol/mg of protein; Nitrites, hypothalamus [3, 5]: 6.91 ± 0.58 nmol/mg of protein; Nitrites, midbrain [3, 5]: 5.75 ± 0.39 nmol/mg of protein; Nitrites, striatum [3, 5]: 3.57 ± 0.42 nmol/mg of protein
O=c1[nH][nH]c(=O)c2ncccc12.[Li] [Compound 6, lithium salt of pyrido [2,3-d]-6H-pyridazine-5,8-dione]	1.0000	0.8327	0.7821	0.0046	0.0722	0.7821	0.7144	0.1888	0.1847	0.0201	0.3017	0.1888	3.09 ± 0.16 nmol/min/mg of protein	5.45 ± 0.24 nmol/min/mg of protein	2.60 ± 0.29 nmol/min/mg of protein	1.26 ± 0.08 nmol/min/mg of protein	2.70 ± 0.14 nmol/min/mg of protein	5.26 ± 0.28 nmol/min/mg of protein	1.83 ± 0.23 nmol/min/mg of protein	1.24 ± 0.08 nmol/min/mg of protein	Nitrites, brainstem [3, 4]: 6.31 ± 0.58 nmol/mg of protein; Nitrites, cerebellum [3, 4]: 6.66 ± 0.63 nmol/mg of protein; Nitrites, cerebral cortex [3, 4]: 4.31 ± 0.37 nmol/mg of protein; Nitrites, hippocampus [3, 4]: 6.47 ± 0.72 nmol/mg of protein; Nitrites, hypothalamus [3, 4]: 6.77 ± 0.83 nmol/mg of protein; Nitrites, midbrain [3, 4]: 6.65 ± 0.70 nmol/mg of protein; Nitrites, striatum [3, 4]: 6.11 ± 0.29 nmol/mg of protein; Nitrites, brainstem [3, 5]: 6.57 ± 0.72 nmol/mg of protein; Nitrites, cerebellum [3, 5]: 5.46 ± 0.44 nmol/mg of protein; Nitrites, cerebral cortex [3, 5]: 4.72 ± 0.37 nmol/mg of protein; Nitrites, hippocampus [3, 5]: 5.44 ± 0.43 nmol/mg of protein; Nitrites, hypothalamus [3, 5]: 6.57 ± 0.88 nmol/mg of protein; Nitrites, midbrain [3, 5]: 5.50 ± 0.48 nmol/mg of protein; Nitrites, striatum [3, 5]: 3.57 ± 0.42 nmol/mg of protein
